In brackets after ≈: the same amount, converted by molar mass.
Tested on: Candida albicans
Experiment: Antifungal activity against Candida albicans isolated from HSCT recipients with acute or chronic GVHD prior to initiation of posaconazole therapy by broth microdilution method
Format: functional

Q: CC[C@@H]([C@H](C)O)n1ncn(-c2ccc(N3CCN(c4ccc(OC[C@@H]5CO[C@@](Cn6cncn6)(c6ccc(F)cc6F)C5)cc4)CC3)cc2)c1=O [POSACONAZOLE] was tested. Which MIC50 did it give?
A: The MIC50 was 0.016 µg/mL (≈ 0.0228 µM).

Q: And the MIC90?
A: The MIC90 was 0.06 µg/mL (≈ 0.0856 µM).

Tested on: Nakaseomyces glabratus
Experiment: Antifungal activity against Candida glabrata isolated from HSCT recipients with acute or chronic GVHD receiving fluconazole assessed as maximum MIC by broth microdilution method
Format: functional

Q: For CC[C@@H]([C@H](C)O)n1ncn(-c2ccc(N3CCN(c4ccc(OC[C@@H]5CO[C@@](Cn6cncn6)(c6ccc(F)cc6F)C5)cc4)CC3)cc2)c1=O [POSACONAZOLE], which MIC is on record?
A: The MIC was 16 µg/mL.

Tested on: Nakaseomyces glabratus
Experiment: Antifungal activity against Candida glabrata isolated from HSCT recipients with acute or chronic GVHD receiving posaconazole by broth microdilution method
Format: functional

Q: Which MIC50 does the source give for CC[C@@H]([C@H](C)O)n1ncn(-c2ccc(N3CCN(c4ccc(OC[C@@H]5CO[C@@](Cn6cncn6)(c6ccc(F)cc6F)C5)cc4)CC3)cc2)c1=O [POSACONAZOLE] here?
A: Its MIC50 is 2 µg/mL (≈ 2.85 µM).

Q: What about the MIC90 of the same molecule?
A: The MIC90 was 8 µg/mL (≈ 11.4 µM).

Tested on: Nakaseomyces glabratus
Experiment: Antifungal activity against Candida glabrata isolated from neutropenic subject 1497 with AML or MDS pharynx after 61 days prophylaxis by broth microdilution method
Format: functional

Q: With CC[C@@H]([C@H](C)O)n1ncn(-c2ccc(N3CCN(c4ccc(OC[C@@H]5CO[C@@](Cn6cncn6)(c6ccc(F)cc6F)C5)cc4)CC3)cc2)c1=O [POSACONAZOLE] as the molecule, how does the MIC read?
A: Its MIC is 0.03 µg/mL (≈ 0.0428 µM).

Tested on: Candida albicans
Experiment: Antifungal activity against Candida albicans isolated from HSCT recipient 262 with acute or chronic GVHD mouth after 115 days prophylaxis by broth microdilution method
Format: functional

Q: With CC[C@@H]([C@H](C)O)n1ncn(-c2ccc(N3CCN(c4ccc(OC[C@@H]5CO[C@@](Cn6cncn6)(c6ccc(F)cc6F)C5)cc4)CC3)cc2)c1=O [POSACONAZOLE] as the molecule, how does the MIC read?
A: The MIC was under 0.015 µg/mL.

Tested on: Nakaseomyces glabratus
Experiment: Antifungal activity against Candida glabrata isolated from neutropenic subject 1318 with AML or MDS stool after 36 days prophylaxis by broth microdilution method
Format: functional

Q: How did the MIC turn out when CC[C@@H]([C@H](C)O)n1ncn(-c2ccc(N3CCN(c4ccc(OC[C@@H]5CO[C@@](Cn6cncn6)(c6ccc(F)cc6F)C5)cc4)CC3)cc2)c1=O [POSACONAZOLE] was run?
A: Its MIC is 0.5 µg/mL (≈ 0.713 µM).

Tested on: Candida albicans
Experiment: Antifungal activity against Candida albicans isolated from HSCT recipient 042 with acute or chronic GVHD mouth after 112 days prophylaxis by broth microdilution method
Format: functional

Q: How did the MIC turn out when CC[C@@H]([C@H](C)O)n1ncn(-c2ccc(N3CCN(c4ccc(OC[C@@H]5CO[C@@](Cn6cncn6)(c6ccc(F)cc6F)C5)cc4)CC3)cc2)c1=O [POSACONAZOLE] was run?
A: Its MIC is under 0.015 µg/mL.

Tested on: Nakaseomyces glabratus
Experiment: Antifungal activity against 60 days cultured Candida glabrata isolated from HSCT recipient with acute or chronic GVHD mouth receiving antifungal therapy for 75 days after 33 days of prophylaxis by broth microdilution method
Format: functional

Q: CC[C@@H]([C@H](C)O)n1ncn(-c2ccc(N3CCN(c4ccc(OC[C@@H]5CO[C@@](Cn6cncn6)(c6ccc(F)cc6F)C5)cc4)CC3)cc2)c1=O [POSACONAZOLE] was tested. Which MIC did it give?
A: The MIC was 4 µg/mL (≈ 5.71 µM).

Tested on: Nakaseomyces glabratus
Experiment: Antifungal activity against 1 day cultured Candida glabrata isolated from HSCT recipient with acute or chronic GVHD mouth after 17 days of prophylaxis by broth microdilution method
Format: functional

Q: With CC[C@@H]([C@H](C)O)n1ncn(-c2ccc(N3CCN(c4ccc(OC[C@@H]5CO[C@@](Cn6cncn6)(c6ccc(F)cc6F)C5)cc4)CC3)cc2)c1=O [POSACONAZOLE] as the molecule, how does the MIC read?
A: Its MIC is over 8 µg/mL.

Tested on: Candida albicans
Experiment: Antifungal activity against Candida albicans isolated from neutropenic subjects with AML or MDS receiving posaconazole by broth microdilution method
Format: functional

Q: With CC[C@@H]([C@H](C)O)n1ncn(-c2ccc(N3CCN(c4ccc(OC[C@@H]5CO[C@@](Cn6cncn6)(c6ccc(F)cc6F)C5)cc4)CC3)cc2)c1=O [POSACONAZOLE] as the molecule, how does the MIC50 read?
A: Its MIC50 is 0.015 µg/mL (≈ 0.0214 µM).

Q: And the MIC90?
A: Its MIC90 is 0.015 µg/mL (≈ 0.0214 µM).

Tested on: Nakaseomyces glabratus
Experiment: Antifungal activity against Candida glabrata isolated from neutropenic subject 1318 with AML or MDS stool receiving antifungal drug after 36 days prophylaxis by broth microdilution method
Format: functional

Q: For CC[C@@H]([C@H](C)O)n1ncn(-c2ccc(N3CCN(c4ccc(OC[C@@H]5CO[C@@](Cn6cncn6)(c6ccc(F)cc6F)C5)cc4)CC3)cc2)c1=O [POSACONAZOLE], which MIC is on record?
A: The MIC was 8 µg/mL (≈ 11.4 µM).

Tested on: Nakaseomyces glabratus
Experiment: Antifungal activity against 10 days cultured Candida glabrata isolated from neutropenic subject with AML or MDS stool receiving antifungal therapy for 37 days after 9 days of prophylaxis by broth microdilution method
Format: functional

Q: CC[C@@H]([C@H](C)O)n1ncn(-c2ccc(N3CCN(c4ccc(OC[C@@H]5CO[C@@](Cn6cncn6)(c6ccc(F)cc6F)C5)cc4)CC3)cc2)c1=O [POSACONAZOLE] was tested. Which MIC did it give?
A: The MIC was 1 µg/mL (≈ 1.43 µM).

Tested on: Nakaseomyces glabratus
Experiment: Antifungal activity against Candida glabrata isolated from neutropenic subjects with AML or MDS prior to initiation of posaconazole therapy by broth microdilution method
Format: functional

Q: With CC[C@@H]([C@H](C)O)n1ncn(-c2ccc(N3CCN(c4ccc(OC[C@@H]5CO[C@@](Cn6cncn6)(c6ccc(F)cc6F)C5)cc4)CC3)cc2)c1=O [POSACONAZOLE] as the molecule, how does the MIC50 read?
A: Its MIC50 is 0.25 µg/mL (≈ 0.357 µM).

Q: And the MIC90?
A: The MIC90 was 2 µg/mL (≈ 2.85 µM).

Tested on: Candida albicans
Experiment: Antifungal activity against 1 day cultured Candida albicans isolated from HSCT recipient with acute or chronic GVHD mouth after 2 days of prophylaxis by broth microdilution method
Format: functional

Q: How did the MIC turn out when CC[C@@H]([C@H](C)O)n1ncn(-c2ccc(N3CCN(c4ccc(OC[C@@H]5CO[C@@](Cn6cncn6)(c6ccc(F)cc6F)C5)cc4)CC3)cc2)c1=O [POSACONAZOLE] was run?
A: Its MIC is under 0.03 µg/mL.

Tested on: Nakaseomyces glabratus
Experiment: Antifungal activity against Candida glabrata isolated from neutropenic subject 1497 with AML or MDS pharynx receiving antifungal drug after 61 days prophylaxis by broth microdilution method
Format: functional

Q: With CC[C@@H]([C@H](C)O)n1ncn(-c2ccc(N3CCN(c4ccc(OC[C@@H]5CO[C@@](Cn6cncn6)(c6ccc(F)cc6F)C5)cc4)CC3)cc2)c1=O [POSACONAZOLE] as the molecule, how does the MIC read?
A: Its MIC is 4 µg/mL (≈ 5.71 µM).

Tested on: Nakaseomyces glabratus
Experiment: Antifungal activity against Candida glabrata isolated from HSCT recipient 270 with acute or chronic GVHD mouth after 108 days prophylaxis by broth microdilution method
Format: functional

Q: Which MIC does the source give for CC[C@@H]([C@H](C)O)n1ncn(-c2ccc(N3CCN(c4ccc(OC[C@@H]5CO[C@@](Cn6cncn6)(c6ccc(F)cc6F)C5)cc4)CC3)cc2)c1=O [POSACONAZOLE] here?
A: The MIC was 0.06 µg/mL (≈ 0.0856 µM).

Tested on: Nakaseomyces glabratus
Experiment: Antifungal activity against Candida glabrata isolated from HSCT recipient 807 with acute or chronic GVHD mouth receiving antifungal drug after 114 days prophylaxis by broth microdilution method
Format: functional

Q: For CC[C@@H]([C@H](C)O)n1ncn(-c2ccc(N3CCN(c4ccc(OC[C@@H]5CO[C@@](Cn6cncn6)(c6ccc(F)cc6F)C5)cc4)CC3)cc2)c1=O [POSACONAZOLE], which MIC is on record?
A: Its MIC is over 8 µg/mL.

Tested on: Nakaseomyces glabratus
Experiment: Antifungal activity against 15 days cultured Candida glabrata isolated from HSCT recipient with acute or chronic GVHD mouth receiving antifungal therapy for 168 days after 113 days of prophylaxis by broth microdilution method
Format: functional

Q: For CC[C@@H]([C@H](C)O)n1ncn(-c2ccc(N3CCN(c4ccc(OC[C@@H]5CO[C@@](Cn6cncn6)(c6ccc(F)cc6F)C5)cc4)CC3)cc2)c1=O [POSACONAZOLE], which MIC is on record?
A: The MIC was 2 µg/mL (≈ 2.85 µM).
